Experiments:
[1] = target: intestinal alkaline phosphatase (IAP) (Bos taurus, UniProt P19111); assay: Alkaline phosphatase inhibition assay (spectrophotometric, p-NPP substrate); format: biochemical, calf; details: p-NPP 0.5 mM, pH 9.5, 37 °C, Mean ± SEM
Procedure: The measurement of intestinal alkaline phosphatase (IAP) activity was conducted using a spectrophotometric method, as described earlier. […] Additionally, 10 µL of the compound was added to the mixture. The mixture was subjected to pre-incubation with 5 µL of IAP (0.025 U/mL) for a duration of 10 min. The reaction was started by introducing 10 µL of the substrate, which was 0.5 mM p-NPP (para nitrophenyl phosphate disodium salt). Following the addition, the assay underwent an incubation period of 30 min at a temperature of 37 °C. The change in absorbance resulting from the release of p-nitrophenolate was monitored at a wavelength of 405 nm using a Thermo Scientific™ Multiskan GO™ microplate reader. The experiment was repeated three times, with each repetition being done in triplicate. […] The calculation of inhibition activity and IC50 values were carried out as discussed earlier.

Chain of intestinal alkaline phosphatase (IAP) (P19111 20-533): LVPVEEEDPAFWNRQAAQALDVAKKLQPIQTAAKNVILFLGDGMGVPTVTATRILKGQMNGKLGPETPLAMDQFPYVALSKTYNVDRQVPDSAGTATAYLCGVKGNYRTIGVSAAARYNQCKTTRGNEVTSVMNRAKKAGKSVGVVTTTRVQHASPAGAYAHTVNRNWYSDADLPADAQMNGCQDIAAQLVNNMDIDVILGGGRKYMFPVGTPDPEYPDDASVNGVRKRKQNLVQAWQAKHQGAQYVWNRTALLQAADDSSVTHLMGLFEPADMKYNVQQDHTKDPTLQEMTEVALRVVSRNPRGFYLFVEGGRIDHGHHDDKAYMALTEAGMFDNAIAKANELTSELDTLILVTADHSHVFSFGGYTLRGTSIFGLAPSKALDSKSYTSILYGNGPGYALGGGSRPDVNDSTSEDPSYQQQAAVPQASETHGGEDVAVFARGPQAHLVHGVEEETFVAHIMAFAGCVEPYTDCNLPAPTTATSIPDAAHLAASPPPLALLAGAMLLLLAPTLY

Row | SMILES | IC50 [1] | melting point
1 | O=C1CNC(=S)N1/N=C/c1cc(/N=N/c2ccccc2)ccc1O [Compound 7a, 3-((E)-(2-hydroxy-5-((E)-phenyldiazenyl)benzylidene)amino)-2-thioxoimidazolidin-4-one] | 4.85 ± 0.985 µM | 
2 | O=C1CNC(=S)N1/N=C/c1cc(/N=N/c2ccc(S(=O)(=O)O)cc2)ccc1O [Compound 7b, 4-((E)-(4-hydroxy-3-((E)-((5-oxo-2-thioxoimidazolidin-1-yl)imino)methyl)phenyl)-diazenyl)benzenesulfonic acid] | 1.28 ± 0.214 µM | 
3 | O=C1CNC(=S)N1/N=C/c1cc(/N=N/c2cccc(Cl)c2Cl)ccc1O [Compound 7c, 3-((E)-(5-((E)-(2,3-dichlorophenyl)diazenyl)-2-hydroxybenzylidene)amino)-2 thioxoimidazolidin-4-one] | 3.07 ± 0.687 µM | 
4 | Cc1c(Cl)cccc1/N=N/c1ccc(O)c(/C=N/N2C(=O)CNC2=S)c1 [Compound 7d, 3-((E)-(5-((E)-(3-chloro-2-methylphenyl)diazenyl)-2-hydroxybenzylidene)amino)-2-thioxoimidazolidin-4-one] | 3.15 ± 0.853 µM | 
5 | O=C(O)c1ccc(/N=N/c2ccc(O)c(/C=N/N3C(=O)CNC3=S)c2)cc1 [Compound 7e, 4-((E)-(4-hydroxy-3-((E)-((5-oxo-2-thioxoimidazolidin-1-yl)imino)methyl)phenyl)diazenyl)benzoic acid] | 0.308 ± 0.065 µM | 
6 | O=C1CNC(=S)N1/N=C/c1cc(/N=N/c2ccc([N+](=O)[O-])cc2)ccc1O [Compound 7f, 3-((E)-(2-hydroxy-5-((E)-(4-nitrophenyl)diazenyl)benzylidene)amino)-2-thioxoimidazolidin-4-one] | 0.836 ± 0.097 µM | 271 to 273 °C
7 | N[C@@H](Cc1ccccc1)C(=O)O [L–Phenyl alanine, reference compound] | 80.2 ± 1.1 µM | 
